We go through 70 molecules from the supplement of paper PMC10290057.

Structures can show the parent of a compound that is named as a salt.
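Further: Luminescence-based viability readout, five doses per compound, normalized against on-plate DMSO and empty-well controls, followed by dose-response curve fitting for every drug.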

The test system of the test is HCT116. Briefly: efficacy (fitted maximal change in viability relative to DMSO control); higher = less cytotoxic (negative = loss of viability). The following applies: 48 h.
Turning to `C=Cc1cc(O)cc2nc(-c3ccc(O)c(F)c3)oc12` [Prinaberel], the efficacy was -14.8%. For `CC(C)(Sc1cc(C(C)(C)C)c(O)c(C(C)(C)C)c1)Sc1cc(C(C)(C)C)c(O)c(C(C)(C)C)c1` [Probucol] the value was -25.9%. `CNNCc1ccc(C(=O)NC(C)C)cc1` [Procarbazine hydrochloride]: the efficacy was -10.4%. For `CC[C@H](NC(C)C)[C@H](O)C1=CC=C(O)C2=C1\C=C/C(=O)N2` [Procaterol hydrochloride], the efficacy is 6.79%. For `CCCN(CCC)C(=O)C(CCC(=O)O)NC(=O)c1ccccc1` (stereo not given) [Proglumide] the value was -18.3%; for `CCCNCC(O)COc1ccccc1C(=O)CCc1ccccc1` (stereo not given) [Propafenone hydrochloride], -43.8%; for `CCCOc1ccc(C(=O)OCCN(CC)CC)cc1N` [Proparacaine], -20.7%. For `CC(C)c1cccc(C(C)C)c1O` [Propofol], the efficacy is -8.33%.

`CCCCC[C@H](O)/C=C/[C@H]1[C@H](O)CC(=O)[C@@H]1C/C=C\CCCC(=O)O` [Prostaglandin E2]: the efficacy is -28.6%.

With `CCCc1cc(C(N)=S)ccn1` [Protionamide], the efficacy is -9.17%. As for `OC[C@H]1O[C@H]([C@H](O)[C@@H](O)[C@@H]1O)C2=C(O)C=CC3=C2O/C=C(C3=O)/C4=CC=C(O)C=C4` [Puerarin], the efficacy was -15.8%. Turning to `CC(C)[C@H](CO)Nc1nc(Nc2ccc(C(=O)O)c(Cl)c2)c2ncn(C(C)C)c2n1` [Purvalanol B], the efficacy was -11.6%.

`CC(C)(C)C1=NC2=C([NH]1)C3=CC=C(F)C=C3C4=C2\C=C/NC4=O` [Pyridone 6]: the efficacy is -28.4%.

For `OC1=CC2=C(C(=C1)O)C(=O)\C(=C(/O2)C3=CC(=C(O)C=C3)O)O` [Quercetin], the efficacy was -10.2%. Take `C=C[C@H]1CN2CCC1C[C@@H]2C(O)c1ccnc2ccc(OC)cc12` (stereo not given in full) [Quinidine]: the efficacy is -25.6%. Consider `CN1C(=O)\C(=C/C2=C1N=C(NC3CCOCC3)N=C2)OC4=C(F)C=C(F)C=C4` [R-1487], for which the efficacy is -14.4%. Take `CCc1cccc2c3c([nH]c12)[C@@](CC)(CC(=O)O)OCC3` [R-Etodolac]: the efficacy is -22.7%. For `CNC(=O)c1ccc(N2C(=S)N(c3ccc(C#N)c(C(F)(F)F)c3)C(=O)C23CCC3)cc1F` [RD-162] the value was -28.5%; for `C[C@H]1CN(CCN1C2=CN=C(NC/3=C/C(=C\N(C)C3=O)C4=CC=NC(=C4CO)N5CC[N]6C7=C(CC(C)(C)C7)C=C6C5=O)C=C2)C8COC8` [RG-7845 (GDC-0853)], -34.1%; for `OCc1ccc(-c2ccc(-c3ccc(CO)s3)o2)s1` [RITA], -46%. Take `Cc1ccc(Nc2cc(N[C@@H]3CCCC[C@@H]3N)nnc2C(N)=O)nc1C` [RO-9021]: the efficacy was -74.9%.

Take `O=C(CBr)N1CC([N+](=O)[O-])([N+](=O)[O-])C1` [RRx-001]: the efficacy is -23.7%. For `CCC(C)CNCC(=O)N1CCc2sccc2C1c1cccc(C)n1` (stereo not given) [RUSKI-201] the value was -17%; for `CN(CC1=CC2=C(N\C(=N/C2=O)C)C=C1)C3=CC=C(S3)C(=O)N[C@@H](CCC(O)=O)C(O)=O` [Raltitrexed], -59%; for `CCC(=O)NCC[C@@H]1CCc2ccc3c(c21)CCO3` [Ramelteon], -25.2%. For `CCOC(=O)[C@H](CCc1ccccc1)N[C@@H](C)C(=O)N1[C@H](C(=O)O)C[C@@H]2CCC[C@@H]21` [Ramipril] the value was -13.7%; for `COc1ccccc1OCC(O)CN1CCN(CC(=O)Nc2c(C)cccc2C)CC1` (stereo not given) [Ranolazine], -11.9%. As to `C#CCN[C@@H]1CCc2ccccc21` [Rasagiline mesylate], the efficacy was -9.57%.

For the molecule `CCOc1cc(CC(=O)N[C@@H](CC(C)C)c2ccccc2N2CCCCC2)ccc1C(=O)O` [Repaglinide], the efficacy is -23%.

On to `CCOCc1nc2c(N)nc3ccccc3c2n1CC(C)(C)O` [Resiquimod], for which the efficacy is -14.3%.

As to `CCOC(=O)Nc1ccc(NCc2ccc(F)cc2)cc1N` [Retigabine], the efficacy is -11.8%.

Take `O=C(O)c1cc(O)c2c(c1)C(=O)c1cccc(O)c1C2=O` [Rhein]: the efficacy was -14.9%. For `NC(=O)c1ncn([C@@H]2O[C@H](CO)[C@@H](O)[C@H]2O)n1` [Ribavirin] the value was 18.5%.

In the case of `CN(C)C(=O)c1cc2cnc(Nc3ccc(N4CCNCC4)cn3)nc2n1C1CCCC1` [Ribociclib (LEE011)], the efficacy was -12.5%.

With `CC1=CC/2=C(C=C1C)N(C[C@@H](O)[C@@H](O)[C@@H](O)CO)C/3=N/C(=O)NC(=O)C3=N2` [Riboflavin], the efficacy is -9.8%. For `CO[C@H]1/C=C/O[C@@]2(C)Oc3c(C)c(O)c4c(O)c(c(/C=N/N5CCN(C)CC5)c(O)c4c3C2=O)NC(=O)/C(C)=C\C=C\[C@H](C)[C@H](O)[C@@H](C)[C@@H](O)[C@@H](C)[C@H](OC(C)=O)[C@@H]1C` [Rifampicin] the value was -20.5%; for `CO[C@H]1/C=C/O[C@@]2(C)Oc3c(C)c(O)c4c(O)c(c(/C=N\N5CCN(C6CCCC6)CC5)c(O)c4c3C2=O)NC(=O)/C(C)=C\C=C\[C@H](C)[C@H](O)[C@@H](C)[C@@H](O)[C@@H](C)[C@H](OC(C)=O)[C@@H]1C` [Rifapentine], -59.1%.

Take `CO[C@H]1/C=C/O[C@@]2(C)Oc3c(C)c(O)c4c(O)c(c5c(nc6cc(C)ccn65)c4c3C2=O)NC(=O)/C(C)=C\C=C\[C@H](C)[C@H](O)[C@@H](C)[C@@H](O)[C@@H](C)[C@H](OC(C)=O)[C@@H]1C` [Rifaximin]: the efficacy was -88.6%. For the molecule `C1C\N=C(\NC(C2CC2)C3CC3)O1` [Rilmenidine], the efficacy is -6.97%. For `COC(=O)N(C)c1c(N)nc(-c2nn(Cc3ccccc3F)c3ncccc23)nc1N` [Riociguat] the value was -5.69%; for `C[C@H]1CNCCCN1[S+](=O)([O-])c1cccc2cncc(F)c12` [Ripasudil], -11%; for `O=P(O)(O)C(O)(Cc1cccnc1)P(=O)(O)[O][Na]` (stereo not given) [Risedronate sodium], -16.1%. For `CC(NCCc1ccc(O)cc1)C(O)c1ccc(O)cc1` (stereo not given) [Ritodrine hydrochloride] the value was -19.4%; for `O=C(NC[C@H]1CN(c2ccc(N3CCOCC3=O)cc2)C(=O)O1)c1ccc(Cl)s1` [Rivaroxaban], -24.9%; for `C[N]1C=C(C2=C1C=CC=C2)\C3=C(\C(=O)NC3=O)C4=C5CC(CN)CC[N]5C6=C4C=CC=C6` (stereo not given) [Ro-31-8425], -33.7%. Consider `COc1cc(C(C)C)c(Oc2cnc(NC(CO)CO)nc2N)cc1I` [Ro-51], for which the efficacy was found to be 7.2%. Regarding `O=C(C[C@@H]1C/C=C\CCC(=O)O[C@H](c2ccccc2)CNC1=O)NCc1ccc(Cl)cc1` [Robotnikinin], the efficacy was -22.6%. Regarding `C=CC[N+]1([C@H]2C[C@H]3[C@@H]4CC[C@H]5C[C@H](O)[C@@H](N6CCOCC6)C[C@]5(C)[C@H]4CC[C@]3(C)[C@H]2OC(C)=O)CCCC1` [Rocuronium bromide], the efficacy was -14.6%. For `C[S+]([O-])(=O)C1=CC=C(C=C1)C/2=C(/C(=O)OC2)C3=CC=CC=C3` [Rofecoxib] the value was -13.7%; for `O=C(Nc1c(Cl)cncc1Cl)c1ccc(OC(F)F)c(OCC2CC2)c1` [Roflumilast], -20.6%; for `COc1ccc(C2CNC(=O)C2)cc1OC1CCCC1` (stereo not given) [Rolipram], -7.4%. Take `CCCn1c(=O)c2[nH]c(C34CC5CC3C[C@@H](C5)C4)nc2n(CCC)c1=O` [Rolofylline]: the efficacy was -6.71%.

Turning to `CN(C1=CC=CC=C1)C(=O)C/2=C(O)/C3=C(C=CC=C3)N(C)C2=O` [Roquinimex], the efficacy is -11.9%. With `CN(CCOc1ccc(CC2SC(=O)NC2=O)cc1)c1ccccn1` (stereo not given) [Rosiglitazone], the efficacy was -13.8%. On to `CC(=O)c1c(O)c(C)c(O)c(Cc2c(O)c3c(c(C(=O)/C=C/c4ccccc4)c2O)OC(C)(C)C=C3)c1O` [Rottlerin], for which the efficacy was -8.89%. For `CCOC(=O)/C=C/[C@H](C[C@@H]1CCNC1=O)NC(=O)[C@@H](CC(=O)[C@@H](NC(=O)c1cc(C)on1)C(C)C)Cc1ccc(F)cc1` [Rupintrivir] the value was -12.7%.

Turning to `CC(C)(C)c1cc(C(=O)O)c(NC(=O)Nc2ccc3[nH]ncc3c2)s1` [S6K-18], the efficacy is -16.6%. For the molecule `Cc1ccc([S+](=O)([O-])OCC(=O)Nc2ccc(C(=O)O)c(O)c2)cc1` [S31-201], the efficacy is -5.21%. Take `CC(C)Nc1cc(C(F)(F)F)cc2nc(NC(=O)c3cccnc3)nn12` [S-99]: the efficacy was -15%. For `C[C@@H]1COCCN1C\2=C\C(=O)N\3CC[C@H](N(CC4=CN=CC(=C4)Cl)C3=N2)C(F)(F)F` [SAR-405] the value was -26.6%; for `O=[S+]([O-])(CC1CS1)c1ccc(Oc2ccccc2)cc1` (stereo not given) [SB-3CT], -55.8%; for `O=C(CO)N1CCC(c2n[nH]c(-c3ccc(Cl)cc3)c2-c2ccncn2)CC1` [SD-06], 17.8%. `NC(=O)c1ccc2[nH]ccc2c1` [SD-169]: the efficacy was -11.3%.

As to `Fc1ccc(Cl)cc1-c1nc(Nc2ccncc2)c2nccnc2n1` [SD-208], the efficacy is -22.5%. For `O=C(NCC(=O)N1CCCC1)Nc1ccc2cnccc2c1` [SGC-707] the value was -18%. `Cc1cc(C)cc(Oc2ccc(CNC(=O)[C@H](C)N)cc2C)c1` [SGC-2085]: the efficacy was -101%. As for `Cn1cc(-c2ccc3nnc(Sc4ccc5ncccc5c4)n3n2)cn1` [SGX-523], the efficacy was -6.72%. For `CC1(N)CCN(c2cnc(-c3cccc(Cl)c3Cl)c(N)n2)CC1` [SHP-099] the value was -5.94%. For the molecule `Cc1cccc(-c2n[nH]cc2-c2ccc3ncccc3n2)n1` [SJN-2511], the efficacy worked out at 6.89%. With `Oc1ccc(Nc2nc(-c3ccc(Cl)cc3)cs2)cc1` [SKI-II], the efficacy is -62.8%.
